Several values for one entry are separate records, joined by “and”; a condition that tells them apart may be missing. Equal values may be shown once.

For data set [1], the system named is BXPC3 cells. As to the kind of experiment: Cell based screen for inhibitors of Raf and/or Mek kinase, BXPC3. To be noted: Homo sapiens, BXPC-3, 96 h; Table 4; four days incubation, SRB. As to the method:
(§1) Cell Based Screen for Inhibitors of Raf and/or Mek Kinase.
(§2) Cell Lines: Human tumor cell lines LoVo which are known to be growth inhibited by low nM concentrations of a reference standard inhibitor of Ras and human adenocarcinoma cell line CaCo-2, which is known to be growth resistant to the same reference compound.
(§3) Cell Media: RPMI 1640 with 10% Fetal Bovine Serum supplemented with L-glutamine and Pennicilin/Streptomycin. • Compounds: Supplied usually as a 10 mM stock in 100% DMSO. • Normal Saline: 150 mM NaCl • Trichloroacetic Acid (TCA): 50% (w/v) in water • Sulforhodamine B (SRB): 0.4% (w/v) in 1% Acetic Acid • Tris Base: 10 mM in water Methods
(§4) Cells are plated at 2000 cells per well for cell line LoVo, 1,750 cells for cell line BXPC3, 1,000 cells for cell line WM266–4 and 1500 cells for cell line CaCo-2 in 96 well plates. Cells are plated in media (200 μl) and allowed to adhere overnight at 37° C. At 24 hours post plating, compounds are added directly at a volume of 0.5 μl. For the qualitative screen (compounds screened at 25 μM) compound is added directly to cells. For the quantitative screen, compound is first diluted in DMSO to generate concentrations of compound or reference standard of: 1, 5, 10 and 25 μM. It is advisable to make the dilutions in an identical 96 well plate so that compounds can be added using a multichannel micropipettor set at 0.5 μl. The cells are then incubated for four days after which the media is removed using a 12 well manifold by first tipping the plate forward at a 45 degree angle and then inserting the manifold in an upright orientation to prevent the tips of the manifold from disturbing cells at the bottom of the plate. 200 μl of normal saline is then added to each well using an 8 well multichannel pipettor, followed by the careful addition of 50 μl of 50% TCA. The plates are then incubated for 2 hours at 4° C., after which the supernatant is removed using the same technique as above and the plated washed twice with 200 μl water. The plates are then air dried and 50 μl of SRB stock solution is carefully added so that the entire bottom of each well is covered. This again can be used using an 8 well multichannel pipettor. The SRB is incubated with fixed cells for 15 minutes at room temperature after which the SRB is removed with the manifold as described above and the plates washed twice with 350 μl of 1% acetic acid per well each time. The plates are then air dried after which the bound SRB is released from protein by the addition of 200 μl of Tris base. Resolubilizing the SRB is aided by placing the plates on a rotator for 15–30 minutes. The absorbance of each well is determined at 550 or 562 nm using a microtiter plate reader.
(§5) Each compound or dilution thereof is performed in triplicate. Outliers are identified by visual inspection of the data. Each plate should have a “0” control (vehicle only).
(§6) Quantitative Assay: A standard curve is constructed by plotting the concentration of compound against the average absorbance calculated at that concentration. A curve is plotted and the concentration at which the curve passes through the 50% the absorbance mark seen in the “0” control well is the IC50 calculated for that compound. Multiple entries for a given compound indicate that it was tested multiple times.

The test system of data set [2] is WM266-4 cells. Nature of the data set: Cell based screen for inhibitors of Raf and/or Mek kinase, WM266-4. Particulars: Table 4, four days incubation, SRB. As to the method: as §1, §2, §3, §4, §5, §6
The subject of data set [3] is LoVo cells. Nature of the data set: Cell based screen for inhibitors of Raf and/or Mek kinase, LoVo. More on the design: species or system human. Particulars: Table 4, four days incubation, SRB. On the procedure:
as §1, §2, §3, §4, §5, §6

The target of data set [4] is T1, Raf-1 (c-Raf) / GST-MEK1 (Raf and/or Mek kinase).
T1 construct: Sf9 insect cell lysate containing full length 6his-tagged recombinant human c-Raf; fused on or other part: 6His tag on c-Raf; GST on MEK1
As to the kind of experiment: Raf/Mek kinase cascade assay. Particulars: Table 4; read-out: Raf/MEK enzyme IC50. The format is biochemical, human. As to the method:
Raf/Mek Kinase Cascade Assay
(Specific Activity: ˜200 U/ml). Human Non-active Mek-1-GST and human GST-MAP kinase recombinant proteins produced in E. coli).
Stock Solutions Raf/Mek Cascade Assay:
• 1. Assay Dilution Buffer (ADB): 20 mM MOPS, pH 7.2, 25 mM β-glycerol phosphate, 5 mM EGTA, 1 mM sodium orthovanadate, 1 mM dithiothreitol. • 2. Magnesium/ATP Cocktail: 500 μM cold ATP and 75 mM magnesium chloride in ADB. • 3. Active Kinase: Human Active c-Raf: Use at 0.4 U per assay point. • 4. Non-active GST-MEK1: Use at 0.1 μg per assay point. • 5. Non-active GST-p42 MAP Kinase: Use at 1.0 μg per assay point. Stock Solutions ELISA: • 1. TBST—Tris (50 mM, pH 7.5), NaCl (150 mM), Tween-20 (0.05%) • 2. Superblock (Pierce) • 3. Anti-GST Ab (Pharmacia) • 4. Anti-Phospho MAPK (Sigma) • 5. Anti-Mouse Ab/Europium conjugate (Wallac) Assay Procedure: First Stage: c-Raf Dependent Activation of GST-MEK and GST-MAPK • 1. Add […] of ADB per assay (i.e. per well of a 96 well plate) • 2. Add […] of 0.5 mM cold ATP and 75 mM magnesium chloride in ADB. • 3. Add 2 ml of c-Raf (0.4 U/assay), in conjunction with 1.6 ml non-active MEK1 ([…]). • 4. Add 4 ml of non-active GST-p42 MAP Kinase ([…]). • 5. Incubate for 60 minutes at 30° C. in a shaking incubator. • 6. Transfer this mixture to an anti-GST Ab coated 96 well plate (Nunc Immunosorb plates coated o/n with a-GST, then blocked with Pierce Superblock). • 7. Incubate for 60 minutes at 30° C. in a shaking incubator • 8. Wash 3× with TBST, add Anti-Phospho MAPK (Sigma) (1:3000) • 9. Incubate for 60 minutes at 30° C. in a shaking incubator • 10. Wash 3× with TBST, add Anti-Mouse Ab/Europium conjugate (Wallac) (1:500) • 11. Incubate for 60 minutes at 30° C. in a shaking incubator • 12. Wash 3× with TBST, Read plates in Wallac Victor model Plate Reader. • 13. Collect data analyze in Excel for single point and IC50 determinations.
Single point assay—% inhibition at 10 mg/ml (% Inhibition=1—cpd.treated sample/untreated control). IC50 determinations—done on compounds from single point assays with >80% inhibition. Typically, the Raf/Mek assay is run at compound concentrations from 10 μM to 1 nM in half log dilutions. (% inhibition is determined for each compound concentration). Multiple entries for a given compound indicate that it was tested multiple times. The results obtained measure Raf and/or Mek kinase inhibition, and for representative compounds of this invention are listed in Table 4.

Take `Cn1ccnc1Sc1ccc(Nc2c(C#N)cnc3cc(-c4ccc(CN5CCOCC5)cc4)sc23)cc1Cl` [Example 83, 7-({3-chloro-4-[(1-methyl-1H-imidazol-2-yl)thio]phenyl}amino)-2-[4-(morpholin-4-ylmethyl)phenyl]thieno[3,2-b]pyridine-6-carbonitrile]: the melting point fell in the range of 150 to 152 °C. This compound also returned an IC50 in data set [1] of over 1000 nM. The compound also returned an IC50 in data set [2] (Homo sapiens, WM 266-4, 96 h) of over 1000 nM. Besides, the IC50 in data set [3] (Homo sapiens, LoVo, 96 h) was 36 nM. The IC50 in data set [3] worked out at 38 nM. The IC50 in data set [4] was determined as 41 nM.

As for `CCN(CC)Cc1ccc(-c2cc3ncc(C#N)c(Nc4ccc(Sc5nccn5C)c(Cl)c4)c3s2)cc1` [Example 98, 7-({3-chloro-4-[(1-methyl-1H-imidazol-2-yl)thio]phenyl}amino)-2-{4-[(diethylamino)methyl]phenyl}thieno[3,2-b]pyridine-6-carbonitrile], the melting point was in the range of 200 to 203 °C. This compound also had an IC50 in data set [1] of 38 nM. Besides, the IC50 in data set [2] (Homo sapiens, WM 266-4, 96 h) was found to be 40 nM. The compound also gave an IC50 in data set [3] (Homo sapiens, LoVo, 96 h) of 33 nM. In data set [4], the IC50 came out at 5.6 nM.

Compound `CCN(CC)CC#Cc1cc2ncc(C#N)c(Nc3ccc(Sc4nccn4C)c(Cl)c3)c2s1` [Example 118, 7-({3-chloro-4-[(1-methyl-1H-imidazol-2-yl)thio]phenyl}amino)-2-[3-(diethylamino)prop-1-ynyl]thieno[3,2-b]pyridine-6-carbonitrile] showed a melting point of 190 to 194 °C. The compound further gave an IC50 in data set [1] of 71 nM. In addition, the IC50 in data set [3] (Homo sapiens, LoVo, 96 h) worked out at 73 nM.

`Cn1ccnc1Sc1ccc(Nc2c(C#N)cnc3cc(C#CCCN4CCOCC4)sc23)cc1Cl` [Example 86]: the melting point lay in the range of 195 to 200 °C. In data set [1], this compound had an IC50 of 350 nM. This compound showed an IC50 in data set [2] (Homo sapiens, WM 266-4, 96 h) of 350 nM. The IC50 in data set [3] (Homo sapiens, LoVo, 96 h) worked out at 94 nM. In data set [3], the IC50 amounted to 160 nM. Moreover, the IC50 in data set [4] is 221 nM and 332 nM.

Take `CN(C)CC#Cc1cc2ncc(C#N)c(Nc3ccc(Sc4nccn4C)c(Cl)c3)c2s1` [Example 91, 7-({3-chloro-4-[(1-methyl-1H-imidazol-2-yl)thio]phenyl}amino)-2-[3-(dimethylamino)prop-1-ynyl]thieno[3,2-b]pyridine-6-carbonitrile]: the melting point was in the range of 204 to 207 °C. For the same compound, the IC50 in data set [1] stood at 92 nM. For the same compound, the IC50 in data set [2] (Homo sapiens, WM 266-4, 96 h) was 95 nM. In data set [2], this compound registered an IC50 of 85 nM. The IC50 in data set [3] (Homo sapiens, LoVo, 96 h) was 64 nM. Moreover, the IC50 in data set [4] amounted to 475 nM.

`CN1CCN(Cc2ccc(-c3cc4ncc(C#N)c(Nc5ccc(Sc6nccn6C)c(Cl)c5)c4s3)cc2)CC1` [Example 99, 7-({3-chloro-4-[(1-methyl-1H-imidazol-2-yl)thio]phenyl}amino)-2-{4-[(4-methylpiperazin-1-yl)methyl]phenyl}thieno[3,2-b]pyridine-6-carbonitrile] returned a melting point of 221 to 224 °C. The compound also showed an IC50 in data set [1] of 41 nM. The same compound had an IC50 in data set [2] (Homo sapiens, WM 266-4, 96 h) of over 1000 nM. Further, the IC50 in data set [3] (Homo sapiens, LoVo, 96 h) was 39 nM. Further, the IC50 in data set [4] was 4.5 nM.

The values are drawn from patent publication US7276519B2, “Thieno[3,2-b]pyridine-6-carbonitriles and thieno[2,3-b]pyridine-5-carbonitriles as protein kinase inhibitors” (Wyeth, priority 2002, dated 2007).
